The values below come from patent publication US6355640B1, “Pyrazolopyridine adenosine antagonists” (Fujisawa Pharmaceutical Co., Ltd., priority 1993, dated 2002).

Structures are written as SMILES. Marks after values point to notes of the source that are not given here.

The term melting point denotes the temperature, or range, at which the solid turns liquid.

One data set has as its system cisplatin induced renal failure. Kind of data set: Test 1. Effect on Cisplatin-induced Renal Failure. The data set is classed as in vivo. The note with it: Male JCL:SD rats, cisplatin 4.5 mg/kg i.p. at the same time as first dose; test compound 0.1 mg/kg i.v. twice a day for 3 days; measured on the 8th day; mean; p < 0.01 vs control group. The procedure: Male JCL:SD strain rats aged 9 weeks weighing 280-300 g received cisplatin (4.5 mg/kg) intraperitoneally. Normal rats were injected with an equal amount of saline instead of cisplatin. The effect of repeated intravenous administration of the test compound (0.1 mg/kg, twice a day) on cisplatin induced renal failure was investigated in rats. Cisplatin was given at the same time of the first dose of the test compound (for the test group) or vehicle (saline) (for the control group), and the test compound or vehicle was given for 3 days. The plasma creatinine concentrations were measured in all rats on the 8th day.
As for `O=C(O)CC1=C(n2nc(-c3c(-c4ccccc4)nn4ccccc34)ccc2=O)CCCCC1` [Example 19, 3-[2-(2-carboxymethyl-1-cycloheptenyl)-3-oxo-2,3-dihydropyridazin-6-yl]-2-phenylpyrazolo[1,5-a]-pyridine], the serum creatinine is listed as 1.32** mg/dl.

For the next data set the test system is unchanged. Kind of data set: Test 2. Effect on Cisplatin-induced Renal Failure. The note with it: Male JCL:SD rats, cisplatin 4.5 mg/kg i.p. 60 minutes after first dose; test compound 0.1 mg/kg i.v. twice a day for 8 days; measured on the 8th day; mean; P < 0.05 vs control group. In kind it is in vivo. How it is done:
Male JCL:SD strain rats aged 9 weeks weighing 280-300 g received cisplatin (4.5 mg/kg) intraperitoneally. Normal rats were injected with an equal amount of saline instead of cisplatin. The effect of chronic intravenous administration of the test compound (0.1 mg/kg, twice a day) on cisplatin induced renal failure was investigated in rats. […] The plasma creatinine concentrations were measured in all rats on the 8th day.
For `O=C(O)CC1=C(n2nc(-c3c(-c4ccccc4)nn4ccccc34)ccc2=O)CCCC1` [Example 58, 3-[2-(2-carboxymethyl-1-cyclohexenyl)-3-oxo-2,3-dihydropyridazin-6-yl]-2-phenylpyrazolo[1,5-a]pyridine], the serum creatinine was 1.10* mg/dl.

System in the next data set: not given
Test: not given
Conditions: not given
In turn, `O=C(O)COc1cccc2c1CCC(n1nc(-c3c(-c4ccccc4)nn4ccccc34)ccc1=O)C2=O` (stereo not shown) [Example 119, 3-[2-(1-Carboxymethoxy-5-oxo-5,6,7,8-tetrahydro-6-naphthyl)-3-oxo-2,3-dihydropyridazin-6-yl]-2-phenylpyrazolo[1,5-a]pyridine] came in with a melting point of 225 to 227 °C.

On to `N#C/C=C1/CCCCC1n1nc(-c2c(-c3ccccc3)nn3ccccc23)ccc1=O` (stereo not drawn) [Example 96 (Z)-isomer, (Z)-3-[2-{2-Cyanomethylenecyclohexyl}-3-oxo-2,3-dihydropyridazin-6-yl]-2-phenylpyrazolo[1,5-a]pyridine], for which the melting point fell in the range of 70 to 72 °C.

`O=C(O)CON=C1CCCCC1n1nc(-c2c(-c3ccccc3)nn3ccccc23)ccc1=O` (stereo not shown) [Example 57, 3-[2-(2-Carboxymethoxyiminocyclohexyl)-3-oxo-2,3-dihydropyridazin-6-yl]-2-phenylpyrazolo[1,5-a]pyridine]: the melting point was 208 °C (dec.).

Compound `O=C(CC1=C(n2nc(-c3c(-c4ccccc4)nn4ccccc34)ccc2=O)CCCC1)N1CCNCC1` [Example 113, 3-[2-{2-(piperazin-1-ylcarbonyl)methyl-1-cyclohexenyl}-3-oxo-2,3-dihydropyridazin-6-yl]-2-phenylpyrazolo[1,5-a]pyridine] yielded a melting point of 208.5 to 209 °C. The same measure, in the same setting: in the case of `COc1ccc2c(c1)CC[C@@H](O)[C@@H]2n1nc(-c2c(-c3ccccc3)nn3ccccc23)ccc1=O` (relative stereo) [Example 30, trans-3-[2-(6-Hydroxy-2-methoxy-5,6,7,8-tetrahydro-5-naphthyl)-3-oxo-2,3-dihydropyridazin-6-yl]-2-phenylpyrazolo[1,5-a]pyridine] it was 146 to 150 °C; in that of `O=C(O)CCC1=C(n2nc(-c3c(-c4ccccc4)nn4ccccc34)ccc2=O)CCCC1` [Example 52, 3-[2-{2-(2-carboxyethyl)-1-cyclohexenyl}-3-oxo-2,3-dihydropyridazin-6-yl]-2-phenylpyrazolo[1,5-a]-pyridine], 184 to 185 °C; in that of `C[C@@]1(O)CCCC[C@H]1n1nc(-c2c(-c3ccccc3)nn3ccccc23)ccc1=O` (relative stereo) [Example 35, 3-[2-{(1R*,2R*)-2-hydroxy-2-methylcyclohexyl}-3-oxo-2,3-dihydropyridazin-6-yl]-2-phenylpyrazolo[1,5-a]-pyridine], 197 to 198 °C. Same read-out and setting: in the case of `CCCn1c(=O)cc(-n2nc(-c3c(-c4ccccc4)nn4ccccc34)ccc2=O)n(CC(=O)OC)c1=O` [Example 28, 3-[2-(2,4-Dioxo-1-methoxycarbonylmethyl-3-propyl-1,2,3,4-tetrahydropyrimidin-6-yl)-3-oxo-2,3-dihydropyridazin-6-yl]-2-phenylpyrazolo[1,5-a]pyridine] it was 143 to 145 °C. `O=C(O)[C@H]1CCC(=O)[C@@H](n2nc(-c3c(-c4ccccc4)nn4ccccc34)ccc2=O)C1` (relative stereo) (hydrate or solvate) [Example 17, cis-3-[2-(5-Carboxy-2-oxocyclohexyl)-3-oxo-2,3-dihydropyridazin-6-yl]-2-phenylpyrazolo[1,5-a]pyridine] yielded a melting point of 155 to 165 °C. Same read-out and setting: next, `CCOC(=O)C[C@@H]1CCCC[C@H]1n1nc(-c2c(-c3ccccc3)nn3ccccc23)ccc1=O` (relative stereo) [Example 33(1), trans-3-[2-(2-Ethoxycarbonylmethylcyclohexyl)-3-oxo-2,3-dihydropyridazin-6-yl]-2-phenylpyrazolo[1,5-a]-pyridine]: 172 to 173 °C. Consider `CCOC(=O)[C@H]1CCC(=O)[C@@H](n2nc(-c3c(-c4ccccc4)nn4ccccc34)ccc2=O)C1` (relative stereo) [Example 16, cis-3-[2-(5-Ethoxycarbonyl-2-oxocyclohexyl)-3-oxo-2,3-dihydropyridazin-6-yl]-2-phenylpyrazolo[1,5-a]pyridine], for which the melting point fell in the range of 160 to 162 °C.
